For data set [1], the system named is Partial Sciatic Nerve Ligation (PSNL) model. Kind of data set: Partial Sciatic Nerve Ligation (PSNL) model, behavioral tests. Format: in vivo, male Sprague-Dawley rats. An excerpt: 250-350 g male Sprague-Dawley rats from appropriate animal resources were anesthetized with 2.5% isoflurane. A hind leg was shaved, and the skin was sterilized with 0.5% iodine and 75% alcohol. All surgical instruments were sterilized before surgery and between animals. An incision (1 cm) was made at the middle of the thigh in parallel with the muscle and sciatic nerve distribution. The muscle was exposed and dissected at the joint of two muscles (biceps femoris) indicated by the light colored (white) fascia line. The sciatic nerve was just beneath the muscle and was hooked out using an 18-20 G feeding needle (90 degree curved); the sciatic nerve was flat on the feeding needle and approximately one-half the diameter of the nerve is tightly ligated with 7-0 silk suture. A response of the injured leg twitch indicates the success of ligation. After checking hemostasis, bupivicaine 0.1-0.2 ml (0.125%) was given at the incision area, the muscle and the adjacent fascia are closed with 5-0 absorbable sutures. The skin was sutured with absorbable suture and tissue glue. The control group using sham surgery animals (about 8-10 animals) underwent the same surgical procedure but with no nerve ligation. Animals were returned to their home cage after recovery from anesthesia.
The analgesic effect of the test compound was expressed as a percent recovery (% Recovery) relative to the sham control group baseline and calculated according to the formula:
% Recovery=100%−{[(sham mean−test compound mean)/(sham mean−vehicle mean)]×100%}
wherein “sham mean” refers to average score in the sham-operated group; “test compound mean” refers to average score in the PSNL-group (animals with partial sciatic nerve ligation) or diabetic group (animals treated with STZ) treated with a test compound; “vehicle mean” refers to average score in the PSNL-group or diabetic group treated with vehicle only. The above formula was used to obtain data for the following in vivo behavioral tests.
The following behavioral tests were conducted (i.e., plantar test, paw pressure test, and von Frey test) started on day 3 and thereafter once weekly following surgery or use of a diabetic inducer. […]
(§1) Rats were placed on the glass surface of a thermal testing apparatus (Model 336, IITC/Life Science Instruments, Woodland Hills, Calif.) and were allowed to acclimate for 10 min before testing on the glass surface at room temperature. […] The paw withdrawal latency was recorded by a digital timer. The thermal threshold was determined as the mean withdrawal latency from two to three consecutive trials of both hindpaws. […]
Animals were placed under clear plastic boxes above a wire mesh floor, which allowed full access to the paws. […] Mechanical paw withdrawal thresholds (PWTs) were measured with the up-down testing paradigm. […]

Data set [2] deals with T1, hNaV1.7 (Homo sapiens, UniProt Q15858).
T1 construct: expressed in transfected cells
T1 sequence (Q15858 whole entry): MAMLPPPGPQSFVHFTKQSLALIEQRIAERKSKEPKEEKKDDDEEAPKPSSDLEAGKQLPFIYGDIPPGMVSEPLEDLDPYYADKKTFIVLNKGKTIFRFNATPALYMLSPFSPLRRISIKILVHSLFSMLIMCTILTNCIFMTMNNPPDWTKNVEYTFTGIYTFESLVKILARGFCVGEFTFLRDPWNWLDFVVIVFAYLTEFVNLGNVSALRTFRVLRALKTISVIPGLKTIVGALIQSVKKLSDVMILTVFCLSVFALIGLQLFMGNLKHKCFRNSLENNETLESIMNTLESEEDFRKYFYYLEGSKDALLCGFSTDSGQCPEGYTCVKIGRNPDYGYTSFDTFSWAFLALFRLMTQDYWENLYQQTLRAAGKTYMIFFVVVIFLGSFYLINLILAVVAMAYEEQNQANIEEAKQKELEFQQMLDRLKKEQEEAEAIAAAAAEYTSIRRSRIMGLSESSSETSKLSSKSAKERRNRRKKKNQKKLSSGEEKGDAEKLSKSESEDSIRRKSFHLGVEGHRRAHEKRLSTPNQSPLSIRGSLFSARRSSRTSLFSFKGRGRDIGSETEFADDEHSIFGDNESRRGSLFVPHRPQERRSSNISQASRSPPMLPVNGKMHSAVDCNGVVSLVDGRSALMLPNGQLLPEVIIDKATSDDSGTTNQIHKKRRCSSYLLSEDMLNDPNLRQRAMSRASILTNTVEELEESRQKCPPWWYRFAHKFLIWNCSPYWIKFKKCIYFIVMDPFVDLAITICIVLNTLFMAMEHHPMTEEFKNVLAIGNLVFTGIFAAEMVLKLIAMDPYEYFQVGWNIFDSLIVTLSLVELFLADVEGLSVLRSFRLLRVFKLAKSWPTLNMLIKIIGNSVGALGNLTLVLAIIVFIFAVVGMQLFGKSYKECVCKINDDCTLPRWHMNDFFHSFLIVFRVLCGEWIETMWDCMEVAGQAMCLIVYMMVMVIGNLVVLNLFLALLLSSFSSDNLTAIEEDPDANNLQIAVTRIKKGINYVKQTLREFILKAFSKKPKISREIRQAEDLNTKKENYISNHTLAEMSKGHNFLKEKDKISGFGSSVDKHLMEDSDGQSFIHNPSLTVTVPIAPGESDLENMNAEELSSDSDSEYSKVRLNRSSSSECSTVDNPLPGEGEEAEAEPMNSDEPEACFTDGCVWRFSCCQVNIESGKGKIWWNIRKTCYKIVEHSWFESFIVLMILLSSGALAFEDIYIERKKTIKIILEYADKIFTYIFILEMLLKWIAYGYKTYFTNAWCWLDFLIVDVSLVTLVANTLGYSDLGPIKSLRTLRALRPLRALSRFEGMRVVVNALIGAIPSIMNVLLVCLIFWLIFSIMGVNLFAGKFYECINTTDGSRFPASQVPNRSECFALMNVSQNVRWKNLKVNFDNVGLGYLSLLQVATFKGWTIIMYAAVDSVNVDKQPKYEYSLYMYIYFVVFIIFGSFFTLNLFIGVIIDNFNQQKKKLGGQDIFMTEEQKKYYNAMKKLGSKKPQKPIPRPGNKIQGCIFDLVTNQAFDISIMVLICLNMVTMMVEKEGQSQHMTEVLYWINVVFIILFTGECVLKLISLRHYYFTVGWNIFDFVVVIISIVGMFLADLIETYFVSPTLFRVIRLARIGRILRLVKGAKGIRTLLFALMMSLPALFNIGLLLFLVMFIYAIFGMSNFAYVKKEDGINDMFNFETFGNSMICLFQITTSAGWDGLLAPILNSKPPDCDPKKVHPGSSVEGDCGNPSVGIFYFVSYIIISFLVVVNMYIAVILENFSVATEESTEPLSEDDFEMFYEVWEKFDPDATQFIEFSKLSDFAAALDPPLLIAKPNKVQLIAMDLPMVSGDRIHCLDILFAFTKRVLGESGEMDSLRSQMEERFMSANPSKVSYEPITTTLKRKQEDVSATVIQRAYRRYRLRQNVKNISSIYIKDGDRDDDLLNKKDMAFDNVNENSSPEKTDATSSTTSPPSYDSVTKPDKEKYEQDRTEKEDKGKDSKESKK
T1 sequence (Q07699 19-218 partner): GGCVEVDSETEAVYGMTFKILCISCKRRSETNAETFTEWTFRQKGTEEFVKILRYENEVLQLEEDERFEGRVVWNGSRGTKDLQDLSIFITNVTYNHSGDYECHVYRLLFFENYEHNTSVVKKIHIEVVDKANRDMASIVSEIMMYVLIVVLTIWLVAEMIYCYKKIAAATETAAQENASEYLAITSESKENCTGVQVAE
T1 sequence (O60939 30-215 partner): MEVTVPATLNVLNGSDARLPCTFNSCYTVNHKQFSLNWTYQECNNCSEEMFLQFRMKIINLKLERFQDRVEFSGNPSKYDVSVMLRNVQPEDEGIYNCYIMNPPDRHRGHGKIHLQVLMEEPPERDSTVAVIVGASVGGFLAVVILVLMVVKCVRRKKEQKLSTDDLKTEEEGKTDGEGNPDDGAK
Kind of data set: FDSS Membrane Potential In-Vitro Assay. Format: cell-based. The following applies: stimulation with veratridine and scorpion venom, read-out: NaV1.7 IC50.

In data set [3] the target is T2, NaV1.7 (Homo sapiens, UniProt Q15858).
T2 construct: expressed in transfected cells
T2 sequence (Q15858 whole entry): as the sequence (Q15858 whole entry) above
T2 sequence (Q07699 19-218 partner): as the sequence (Q07699 19-218 partner) above
T2 sequence (O60939 30-215 partner): as the sequence (O60939 30-215 partner) above
Kind of data set: Patchliner Electrophysiological In-Vitro Assay (NaV1.7). Format: cell-based. The following applies: Patchliner patch clamp, HEK293, holding at V1/2. The method, boiled down: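 Automated whole-cell patch clamp at room temperature on HEK293 cells stably expressing hNav1.7 with β1 and β2 subunits. Inactivated-state Ki: cells held at their own V1/2, stepped to −120 mV for 5–10 ms, then to Vmax for 10–20 ms, repeated every 10 s; dose-dependent inhibition analysed.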
A general note: In patch-clamp work, channel activity is measured electrically.

For data set [4], the target named is T3, CYP3A4 (Homo sapiens, UniProt P08684).
T3 construct: purchased Invitrogen
T3 sequence (P08684 2-503 limits assumed): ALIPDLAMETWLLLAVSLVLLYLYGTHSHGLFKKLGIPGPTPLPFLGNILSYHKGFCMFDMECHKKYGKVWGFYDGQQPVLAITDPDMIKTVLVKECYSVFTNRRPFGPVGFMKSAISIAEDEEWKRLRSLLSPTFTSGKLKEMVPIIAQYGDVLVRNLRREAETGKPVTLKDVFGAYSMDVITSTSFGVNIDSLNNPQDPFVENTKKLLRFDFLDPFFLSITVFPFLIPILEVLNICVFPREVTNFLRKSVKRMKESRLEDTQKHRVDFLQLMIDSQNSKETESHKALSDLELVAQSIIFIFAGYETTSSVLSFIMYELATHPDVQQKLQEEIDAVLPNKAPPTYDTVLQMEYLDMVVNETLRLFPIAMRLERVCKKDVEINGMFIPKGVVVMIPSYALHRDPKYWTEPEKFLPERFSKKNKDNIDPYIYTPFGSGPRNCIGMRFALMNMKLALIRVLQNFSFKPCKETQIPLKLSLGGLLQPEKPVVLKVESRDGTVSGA
Kind of data set: In-Vitro Cytochrome P450 (CYP450) Inhibition Assay (Vivid CYP450). Format: in vitro ADME. The following applies: CYP3A4 enzyme complex (Vivid CYP450, Invitrogen), 6 μM test concentration. On the procedure: We evaluated interaction of drug candidates with cytochrome P450 enzymes which are a major determinant of drug clearance via oxidative metabolism using a high throughput compatible, fluorescence based CYP450 screening assay (Vivid® CYP450, Invitrogen) according to manufacturer's directions.
In brief, test compounds at four different concentrations (μM—6.0, 2.0, 0.7, 0.2), a positive control (Ketoconazole) and a solvent control were incubated at room temperature in unique wells of a 96-well microtiter plate with CYP3A4 enzyme complex for 20 minutes. A pre-read fluorescence (Ex−485 nm/Em−530 nm) was measured at the start of the incubation using a Tecan Safire^2 microplate reader-monochromator to determine background fluorescence. At the end of the incubation period, enzyme substrate and co-enzyme were added and the reaction was kinetically monitored for 1 hour by measuring fluorescence every minute. Effect of test compounds on inhibition of CYP3A4 metabolism of provided substrate was determined by calculating the ratio of the effective reaction rate in presence of test compound to that in the absence of inhibitor.

Data set [5] deals with Formalin Test (pain behaviors). Kind of data set: Formalin Test (pain behaviors). Format: in vivo, rat. The following applies: relative to vehicle control; 75 mg/kg, oral route.
In data set [6] the test system is Acetic Acid Writhing Model. Description: Writhing Model (Inflammatory Abdominal Pain), rats. Format: in vivo. Particulars: relative to vehicle control, doses of 10 to 30 mg/kg intraperitoneal route. On the procedure:
The Acetic Acid Writhing Model is associated with visceral pain (abdominal pain, such as stomach pain, and pain caused by, for example, bile duct congestion and kidney stones). A writhing test assesses acute peritoneovisceral pain. After acclimation of 2-3 days, a test compound, positive control or vehicle control was administered by intraperitoneal injection (i.p.) or by oral gavage 15-30 minutes prior to administration of acetic acid. The time of administration of test compound was recorded. For mice: Method A: 0.6% Acetic acid solution in saline was injected i.p. in a volume of 10 ml/kg; Method B: 1.2% Acetic acid solution in saline was injected i.p. in a volume of 5 ml/kg. For rats: 4% acetic acid in saline was injected i.p in a volume of 2 ml/kg at T=0 minutes. Each animal was placed in a clear plastic cage. At T=5 minutes, the number of writhing movements was counted over a 45 minute period. Alternatively, the writhing movements were counted over a 5-minute period and repeated every 5 minutes, starting at T=5 minutes over a 45-minute period. For each compound tested, the individual score was obtained by calculating the accumulated writhing movements for the time period studied. […]
(In writhing tests, fewer writhes than in controls are read as antinociception.)

The subject of data set [7] is streptozotocin (STZ)-induced diabetic model. Description: Streptozotocin (STZ)-Induced Model of Diabetic Neuropathy, behavioral tests. Format: in vivo, male Sprague-Dawley rats. Particulars: 30 mg/kg, measured 30 minutes post dose. On the procedure: 250-350 g male Sprague-Dawley rats from appropriate animal resources were used. Type I diabetes was induced by a single injection, (intraperitoneally, intravenously or intramuscularly) of 50-100 mg/kg of streptozotocin (STZ, Sigma Chemicals, St. Louis, Mo. or VWR) freshly dissolved in sodium citrate (0.01 M, pH 4.5). Sham animals were given either saline or same vehicle injection. Following a wait time of about two days, inducement of diabetes was confirmed in STZ-injected rats by measuring the plasma glucose concentrations in blood samples from the tail vein after a fast of 6 hours. […] Other parameters (water intake, food intake, and bodyweight) were monitored before the treatment with a test compound and after the cessation of the treatment.
The analgesic effect of the test compound was expressed as a percent recovery (% Recovery) relative to the sham control group baseline and calculated according to the formula: […]
as §1

The mark [8] stands for this setting: 30 mg/kg intraperitoneal, measured 30-60 minutes post dose.

Take `C#CCN(CCCc1cc(Cl)ccc1Oc1cc(F)c(S(=O)(=O)Nc2nccs2)cc1Cl)CC(=O)O` [Compound 54, 2-((3-(5-chloro-2-(2-chloro-5-fluoro-4-(N-(thiazol-2-yl)sulfamoyl)phenoxy)phenyl)propyl)(prop-2-yn-1-yl)amino)acetic acid]: the “effect in the tactile allodynia test” value in data set [1] (oral route, relative to vehicle control, measured 30 minutes post dose) is recorded as “no significant effect”.
The term IC50 denotes the concentration needed to halve the response being measured. The term inhibition denotes the relative decrease from the control value, in per cent. The low end stands for a response near the control, the high end for a response far below the control. As to `O=C(O)CCNC(=O)c1cc(-c2cc(Cl)ccc2Oc2cc(F)c(S(=O)(=O)Nc3ncns3)cc2Cl)ccn1` [Compound 1, 3-(4-(2-(4-(N-(1,2,4-thiadiazol-5-yl)sulfamoyl)-2-chloro-5-fluorophenoxy)-5-chlorophenyl)picolinamido)propanoic acid], in data set [2], the concentration for half-maximal inhibition (IC50) was less than 130 nM. The IC50 in data set [3] is less than 100 nM. Besides, the inhibition at 1 hour, 6 µM in data set [4] fell in the range of 50 to 100%. In data set [5], the “reduction in pain response (formalin assay phase 2)” value turned out to be 17% and the “reduction in pain response (formalin assay, phase 1)” value stood at 14%. The “effect in the tactile allodynia test” value in data set [1] (setting [8]) is on record as “no significant effect”.
Regarding `O=C(O)CNC(=O)c1cc(-c2cc(Cl)ccc2Oc2cc(F)c(S(=O)(=O)Nc3ncns3)cc2Cl)ccn1` [Compound 2, 2-(4-(2-(4-(N-(1,2,4-thiadiazol-5-yl)sulfamoyl)-2-chloro-5-fluorophenoxy)-5-chlorophenyl)picolinamido)acetic acid], the results for the half-inhibitory concentration (IC50) in data set [2] and in data set [3] were less than 130 nM and less than 100 nM, respectively. The inhibition at 1 hour, 6 µM in data set [4] was in the range of 50 to 100%. Further, in data set [1] (setting [8]), the “effect in the tactile allodynia test” value is “no significant effect”. In addition, the “reduction in pain (writhing)” value in data set [6] is on record as 48-58%.
As to `O=C(O)CCNCCCc1cc(Cl)ccc1Oc1cc(F)c(S(=O)(=O)Nc2cscn2)cc1Cl` [Compound 15, 3-((3-(5-chloro-2-(2-chloro-5-fluoro-4-(N-(thiazol-4-yl)sulfamoyl)phenoxy)phenyl)propyl)amino)propanoic acid], the values for the IC50 in data set [2] and in data set [3] were 130 to 1000 nM and less than 100 nM, respectively. For the same compound, the inhibition at 1 hour, 6 µM in data set [4] is 0 to 25%. Besides, the “effect in the tactile allodynia test” value in data set [7] is given as “no significant effect”.

The values are drawn from patent publication US20160221974A1, “SODIUM CHANNEL MODULATORS FOR THE TREATMENT OF PAIN AND DIABETES” (CHROMOCELL CORPORATION, priority 2013, published 2016).
